Measurements reported in paper PMC4295349, “Synthetic Antimicrobial Peptides Exhibit Two Different Binding Mechanisms to the Lipopolysaccharides Isolated from Pseudomonas aeruginosa and Klebsiella pneumoniae” (International Journal of Medicinal Chemistry, 2014).
Where two headings read alike, the source gives them in different places. Where a SMILES comes first, the peptide text is derived from it. [ ]: non-standard residue; d: D form. ξ: configuration not given here. Oic = O=C(O)[C@@H]1C[C@@H]2CCCC[C@@H]2N1; Oic(3aξ,7aξ) = O=C(O)[C@@H]1CC2CCCCC2N1; Tic = O=C(O)[C@@H]1Cc2ccccc2CN1; Orn = NCCC[C@H](N)C(=O)O; Dab = NCC[C@H](N)C(=O)O; Dap = NC[C@H](N)C(=O)O

How the values were obtained:
[1] = system: LPS isolated from P. aeruginosa or K. pneumoniae; assay: Precipitation of AMP-LPS mixtures prepared for CD; format: physicochemical; conditions: 350 μL stock LPS + 50 μL stock peptide, phosphate buffer; CD spectra could not be obtained
Experimental: (§1) Peptide solutions were prepared by dissolving approximately 2 mg of AMPs 70, 74, 75, 79, or 80 in 1.0 mL of phosphate buffer. […] For the LPS liposome studies 350 μL of stock LPS solution was mixed with 50 μL of stock peptide solution. CD spectroscopy is a sensitive technique, so it is commonly used to monitor conformational changes in peptides and proteins. […] All CD spectra were obtained by acquiring 8 scans using a 0.1 mm cylindrical quartz cell with a spectral range of 260 to 195 nm (at wavelengths below 195 nm the HTV exceeded 400, and therefore data collection was terminated at 195 nm) and a scanning rate of 20 nm/min. Acquisition parameters were bandwidth 1 nm, data pitch 0.2 nm, response time 2.0 s, and 5 mdeg sensitivity. Spectra were collected at room temperature (298 K). Contributions from LPS were eliminated by subtracting from the corresponding AMP-LPS solutions. All analyses of CD spectra were conducted after smoothing with a means-movement function.

K. pneumoniae BAMC 07-18 [2] = system: K. pneumoniae BAMC 07-18
P. aeruginosa PAO1 [3] = conditions: for in vitro inhibitory activity: against P. aeruginosa
K. pneumoniae BAMC 07-18 [4] = format: cell-based, Klebsiella pneumoniae
Text: Table 3 In vitro minimum inhibitory concentration (MIC) and minimum bactericide concentration (MBC) activity against K. pneumonia and P. aeruginosa. | column: K. pneumoniae BAMC 07-18 / MBC (μg/mL)/(μM)

P. aeruginosa PAO1 [5] = format: cell-based, Pseudomonas aeruginosa
Text: Table 3 In vitro minimum inhibitory concentration (MIC) and minimum bactericide concentration (MBC) activity against K. pneumonia and P. aeruginosa. | column: P. aeruginosa PAO1 / MBC (µg/mL)/(μM)

[6] = format: physicochemical
Experimental: as §1

[7] = K. pneumoniae BAMC 07-18, light face value
[8] = P. aeruginosa PAO1, light face value

solubility in phosphate buffer at approximately 2 mg in 1.0 mL [6]	SMILES	precipitation in the presence of either LPS [1]	MIC (K. pneumoniae BAMC 07-18 [2]; BAMC 07-18)	MIC (K. pneumoniae BAMC 07-18 [2]; [7])	MIC (P. aeruginosa PAO1 [3]; [8])	MIC (P. aeruginosa PAO1 [3]; PAO1)	MBC (K. pneumoniae BAMC 07-18 [4]; BAMC 07-18)	MBC (K. pneumoniae BAMC 07-18 [4]; [7])	MBC (P. aeruginosa PAO1 [5]; [8])	MBC (P. aeruginosa PAO1 [5]; PAO1)	in vitro inhibitory activity (P. aeruginosa PAO1 [3])	in vitro inhibitory activity (K. pneumoniae BAMC 07-18 [2]; against K. pneumoniae)
–	CC(C)C[C@H](NC(=O)[C@@H](N)CCCN)C(=O)N1Cc2ccccc2C[C@H]1C(=O)N1[C@H](C(=O)N[C@@H](CCCN)C(=O)N2Cc3ccccc3C[C@H]2C(=O)N2[C@H](C(=O)N[C@@H](Cc3ccccc3)C(=O)N3Cc4ccccc4C[C@H]3C(=O)N3[C@H](C(=O)N[C@@H](CCCN)C(=O)N4Cc5ccccc5C[C@H]4C(=O)N4[C@H](C(=O)N[C@@H](Cc5ccccc5)C(=O)N5Cc6ccccc6C[C@H]5C(=O)N5[C@H](C(=O)N[C@@H](CCCN)C(=O)N6Cc7ccccc7C[C@H]6C(=O)N6[C@H](C(=O)N[C@@H](CCCN)C(=O)N[C@@H](CCCN)C(=O)N[C@@H](CCCN)C(=O)N[C@@H](CCCN)C(N)=O)C[C@@H]7CCCC[C@@H]76)C[C@@H]6CCCC[C@@H]65)C[C@@H]5CCCC[C@@H]54)C[C@@H]4CCCC[C@@H]43)C[C@@H]3CCCC[C@@H]32)C[C@@H]2CCCC[C@@H]21 [AMP 71] (H-[Orn]L[Tic][Oic][Orn][Tic][Oic]F[Tic][Oic][Orn][Tic][Oic]F[Tic][Oic][Orn][Tic][Oic][Orn][Orn][Orn][Orn]-NH2)	precipitation of uncharacterized AMP-LPS complexes	31.2 µM	100 µg/mL	100 µg/mL	31.2 µM	–	–	–	–	–	–
–	CC(C)C[C@H](NC(=O)[C@@H](N)CN)C(=O)N1Cc2ccccc2C[C@H]1C(=O)N1[C@H](C(=O)N[C@@H](CN)C(=O)N2Cc3ccccc3C[C@H]2C(=O)N2[C@H](C(=O)N[C@@H](Cc3ccccc3)C(=O)N3Cc4ccccc4C[C@H]3C(=O)N3[C@H](C(=O)N[C@@H](CN)C(=O)N4Cc5ccccc5C[C@H]4C(=O)N4[C@H](C(=O)N[C@@H](Cc5ccccc5)C(=O)N5Cc6ccccc6C[C@H]5C(=O)N5[C@H](C(=O)N[C@@H](CN)C(=O)N6Cc7ccccc7C[C@H]6C(=O)N6[C@H](C(=O)N[C@@H](CN)C(=O)N[C@@H](CN)C(=O)N[C@@H](CN)C(=O)N[C@@H](CN)C(N)=O)C[C@@H]7CCCC[C@@H]76)C[C@@H]6CCCC[C@@H]65)C[C@@H]5CCCC[C@@H]54)C[C@@H]4CCCC[C@@H]43)C[C@@H]3CCCC[C@@H]32)C[C@@H]2CCCC[C@@H]21 [AMP 72] (H-[Dap]L[Tic][Oic][Dap][Tic][Oic]F[Tic][Oic][Dap][Tic][Oic]F[Tic][Oic][Dap][Tic][Oic][Dap][Dap][Dap][Dap]-NH2)	precipitation of uncharacterized AMP-LPS complexes	33.6 µM	100 µg/mL	50 µg/mL	16.8 µM	33.6 µM	100 µg/mL	100 µg/mL	33.6 µM	–	–
–	CC(C)C[C@H](NC(=O)[C@@H](N)CCN)C(=O)N1Cc2ccccc2C[C@H]1C(=O)N1[C@H](C(=O)N[C@@H](CCN)C(=O)N2Cc3ccccc3C[C@H]2C(=O)N2[C@H](C(=O)N[C@@H](Cc3ccccc3)C(=O)N3Cc4ccccc4C[C@H]3C(=O)N3[C@H](C(=O)N[C@@H](CCN)C(=O)N4Cc5ccccc5C[C@H]4C(=O)N4[C@H](C(=O)N[C@@H](Cc5ccccc5)C(=O)N5Cc6ccccc6C[C@H]5C(=O)N5[C@H](C(=O)N[C@@H](CCN)C(=O)N6Cc7ccccc7C[C@H]6C(=O)N6[C@H](C(=O)N[C@@H](CCN)C(=O)N[C@@H](CCN)C(=O)N[C@@H](CCN)C(=O)N[C@@H](CCN)C(N)=O)C[C@@H]7CCCC[C@@H]76)C[C@@H]6CCCC[C@@H]65)C[C@@H]5CCCC[C@@H]54)C[C@@H]4CCCC[C@@H]43)C[C@@H]3CCCC[C@@H]32)C[C@@H]2CCCC[C@@H]21 [AMP 73] (H-[Dab]L[Tic][Oic][Dab][Tic][Oic]F[Tic][Oic][Dab][Tic][Oic]F[Tic][Oic][Dab][Tic][Oic][Dab][Dab][Dab][Dab]-NH2)	precipitation of uncharacterized AMP-LPS complexes	16.2 µM	50 µg/mL	50 µg/mL	16.2 µM	32.4 µM	100 µg/mL	100 µg/mL	32.4 µM	–	–
solubility issues	CC(C)C[C@H](NC(=O)[C@@H](N)CCCCN)C(=O)N1Cc2ccccc2C[C@H]1C(=O)N1C2CCCCC2C[C@H]1C(=O)NCC(=O)N[C@@H](CCCCN)C(=O)N1Cc2ccccc2C[C@H]1C(=O)N1C2CCCCC2C[C@H]1C(=O)NCC(=O)N[C@@H](Cc1ccccc1)C(=O)N1Cc2ccccc2C[C@H]1C(=O)N1C2CCCCC2C[C@H]1C(=O)NCC(=O)N[C@@H](CCCCN)C(=O)N1Cc2ccccc2C[C@H]1C(=O)N1C2CCCCC2C[C@H]1C(=O)NCC(=O)N[C@@H](Cc1ccccc1)C(=O)N1Cc2ccccc2C[C@H]1C(=O)N1C2CCCCC2C[C@H]1C(=O)NCC(=O)N[C@@H](CCCCN)C(=O)N1Cc2ccccc2C[C@H]1C(=O)N1C2CCCCC2C[C@H]1C(=O)N[C@@H](CCCCN)C(=O)N[C@@H](CCCCN)C(=O)N[C@@H](CCCCN)C(=O)N[C@@H](CCCCN)C(N)=O (stereo partly drawn) [AMP 76] (H-KL[Tic][Oic(3aξ,7aξ)]GK[Tic][Oic(3aξ,7aξ)]GF[Tic][Oic(3aξ,7aξ)]GK[Tic][Oic(3aξ,7aξ)]GF[Tic][Oic(3aξ,7aξ)]GK[Tic][Oic(3aξ,7aξ)]KKKK-NH2)	–	13.9 µM	50 µg/mL	50 µg/mL	13.9 µM	13.9 µM	50 µg/mL	50 µg/mL	13.9 µM	50 µg/mL	–
solubility issues	CC(C)C[C@H](NC(=O)[C@@H](N)CCCCN)C(=O)N1Cc2ccccc2C[C@H]1C(=O)N1[C@H](C(=O)N[C@@H](CCCCN)C(=O)N2Cc3ccccc3C[C@H]2C(=O)N2[C@H](C(=O)N[C@@H](Cc3ccccc3)C(=O)NCC(=O)N3Cc4ccccc4C[C@H]3C(=O)N3[C@H](C(=O)N[C@@H](CCCCN)C(=O)N4Cc5ccccc5C[C@H]4C(=O)N4[C@H](C(=O)N[C@@H](Cc5ccccc5)C(=O)NCC(=O)N5Cc6ccccc6C[C@H]5C(=O)N5[C@H](C(=O)N[C@@H](CCCCN)C(=O)N6Cc7ccccc7C[C@H]6C(=O)N6[C@H](C(=O)N[C@@H](CCCCN)C(=O)N[C@@H](CCCCN)C(=O)N[C@@H](CCCCN)C(=O)N[C@@H](CCCCN)C(N)=O)C[C@@H]7CCCC[C@@H]76)C[C@@H]6CCCC[C@@H]65)C[C@@H]5CCCC[C@@H]54)C[C@@H]4CCCC[C@@H]43)C[C@@H]3CCCC[C@@H]32)C[C@@H]2CCCC[C@@H]21 [AMP 77] (H-KL[Tic][Oic]K[Tic][Oic]FG[Tic][Oic]K[Tic][Oic]FG[Tic][Oic]K[Tic][Oic]KKKK-NH2)	–	14.6 µM	50 µg/mL	50 µg/mL	14.6 µM	29.2 µM	100 µg/mL	50 µg/mL	14.6 µM	50 µg/mL	–
solubility issues	CC(C)C[C@H](NC(=O)[C@@H](N)CCCCN)C(=O)N1Cc2ccccc2C[C@H]1C(=O)N1C2CCCCC2C[C@H]1C(=O)N[C@@H](CCCCN)C(=O)NCC(=O)N1Cc2ccccc2C[C@H]1C(=O)N1C2CCCCC2C[C@H]1C(=O)N[C@@H](Cc1ccccc1)C(=O)N1Cc2ccccc2C[C@H]1C(=O)N1C2CCCCC2C[C@H]1C(=O)N[C@@H](CCCCN)C(=O)NCC(=O)N1Cc2ccccc2C[C@H]1C(=O)N1C2CCCCC2C[C@H]1C(=O)N[C@@H](Cc1ccccc1)C(=O)N1Cc2ccccc2C[C@H]1C(=O)N1C2CCCCC2C[C@H]1C(=O)N[C@@H](CCCCN)C(=O)NCC(=O)N1Cc2ccccc2C[C@H]1C(=O)N1C2CCCCC2C[C@H]1C(=O)N[C@@H](CCCCN)C(=O)N[C@@H](CCCCN)C(=O)N[C@@H](CCCCN)C(=O)N[C@@H](CCCCN)C(N)=O (stereo partly drawn) [AMP 78] (H-KL[Tic][Oic(3aξ,7aξ)]KG[Tic][Oic(3aξ,7aξ)]F[Tic][Oic(3aξ,7aξ)]KG[Tic][Oic(3aξ,7aξ)]F[Tic][Oic(3aξ,7aξ)]KG[Tic][Oic(3aξ,7aξ)]KKKK-NH2)	–	14.3 µM	50 µg/mL	50 µg/mL	14.3 µM	28.6 µM	100 µg/mL	50 µg/mL	14.3 µM	50 µg/mL	50 µg/mL
